Two compounds from patent US20110143197A1, “ELECTRODE ACTIVE MATERIAL FOR POWER STORAGE DEVICE AND POWER STORAGE DEVICE, AND ELECTRONIC EQUIPMENT AND TRANSPORTATION EQUIPMENT” (priority 2008, published 2011) can be followed below.

Data set [1] can be described thus: Coin battery charge-discharge test (metal lithium negative electrode), Test Example 3. From the text: A coin battery as shown in FIG. 5 was fabricated as one example of the power storage device of the present invention. FIG. 5 is a vertical cross-sectional view schematically showing a configuration of a coin battery 1 that is one example of the power storage device of the present invention.
A positive electrode includes a positive electrode current collector 12 made of an aluminum foil and a positive electrode active material layer 13 formed on the positive electrode current collector 12 and containing the phenanthrenequinone-containing compound (1a). The positive electrode was produced in the same manner as in the electrode production method in Test Example 2. This positive electrode was disposed such that the positive electrode current collector 12 was brought into contact with the inner surface of a case 11, and a separator 14 made of a porous polyethylene sheet was placed on the positive electrode.
Then, a non-aqueous electrolyte was injected into the case 11. As the non-aqueous electrolyte, an electrolyte prepared by dissolving lithium hexafluorophosphate in a concentration of 1.25 mol/L in a solvent mixture containing ethylene carbonate and ethylmethyl carbonate (weight ratio 1:3) was used. […]
The charge-discharge capacity was calculated based on the initial discharge capacity of each of the coin batteries. […]

Data set [2] can be described thus: Solubility in an electrolyte (ultraviolet-visible absorption spectrum and visual inspection), Test Example 1. The note with it: 5.0 mmol/l in 1.0 mol/L lithium fluoroborate in propylene carbonate. In kind it is physicochemical. As for the experimental part:
The solubility of the phenanthrenequinone-containing compounds and the phenanthrenequinone-containing polymers obtained in Examples 1 to 10 in an electrolyte was evaluated in the following manner.
A phenanthrenequinone-containing compound or a phenanthrenequinone-containing polymer as obtained in Examples 1 to 10 was mixed with 20 cc of an electrolyte so as to attain a concentration of 5.0 mmol/l, thereby giving a test liquid. This test liquid was subjected to ultraviolet-visible absorption spectrum measurement to examine the solubility of each compound in the electrolyte. The ultraviolet-visible absorption spectrum measurement was performed under the following measurement conditions: a measurement range of 190 to 900 nm and a reference solution of a liquid electrolyte. A UV-2550 (trade name) manufactured by SHIMADZU CORPORATION was used as the measurement apparatus. A liquid electrolyte prepared by dissolving lithium fluoroborate in a concentration of 1.0 mol/L in propylene carbonate was used as the electrolyte.
As a comparative example, a solubility test was performed in the same manner as described above using 9,10-phenanthrenequinone.

Data set [3] in a line: Cyclic voltammetry of evaluation battery (electrode properties), Test Example 2. In kind it is physicochemical. As for the experimental part: The electrode properties of the phenanthrenequinone-containing compound (1a) obtained in Example 1 were examined in the following manner. First, in an argon box equipped with a gas purifier, 20 mg of the phenanthrenequinone-containing compound (1a) serving as an electrode active material and 20 mg of acetylene black serving as a conductive auxiliary agent were uniformly mixed under an argon gas atmosphere. To the resultant mixture was added 1 ml of N-methyl-2-pyrrolidone serving as a solvent, and 5 mg of polyvinylidene fluoride serving as a binder was further added thereto, followed by uniform mixing, to prepare a black slurry. The binder was used in order to bond the electrode active material and the conductive auxiliary agent together.
The slurry thus obtained was applied to the surface of a 20 μm-thick aluminum foil (current collector), and vacuum-dried for 2 hours at room temperature. After drying, a disc having a diameter of 13.5 mm was punched out of the resultant structure to produce an electrode in which an active material layer containing a mixture of the electrode active material, the conductive auxiliary agent, and the binder was formed.
The electrode thus obtained was used as a working electrode, and metal lithium was used for a counter electrode and a reference electrode. These electrodes were immersed in an electrolyte to fabricate an evaluation battery, and the potential sweeping was performed in a potential range from 2.0 to 4.0 V relative to lithium. The sweeping rate was 0.1 mV/sec. As the electrolyte, a liquid electrolyte prepared by dissolving lithium fluoroborate in a concentration of 1.0 mol/L in a solvent mixture containing propylene carbonate and ethylene carbonate (volume ratio 1:1) was used. FIG. 4 is a cyclic voltammogram of the evaluation battery using the electrode active material of the present invention [phenanthrenequinone-containing compound (1a)].

[4] abbreviates: relative to lithium, sweep 2.0 to 4.0 V, 0.1 mV/sec.

Each structure is given as a SMILES string.

In the case of `O=C1C(=O)c2ccccc2-c2ccccc21` [9,10-phenanthrenequinone], the “appearance of electrolyte when battery disassembled after charging and discharging” value in data set [1] is listed as “green coloration of the electrolyte”. Further, the “observation by visual inspection of electrolyte (coloration, dissolution)” value in data set [2] is “colored in yellow, as a result of the compound being entirely dissolved in the electrolyte”. Also, the “absorption peak in ultraviolet-visible absorption spectrum of test liquid (solubility in electrolyte)” value in data set [2] (measurement range 190 to 900 nm) is on record as “a large absorption peak was observed near 250 to 350 nm”.
`O=C1C(=O)c2cc(-c3ccc(-c4ccc5c(c4)C(=O)C(=O)c4ccccc4-5)cc3)ccc2-c2ccccc21` [Compound 1a, 1,4-(9,10-phenanthraquinone)-benzene]: the “reversibility of redox reaction” value in data set [3] (cyclic voltammogram, FIG. 4) is listed as “underwent a reversible redox reaction”. Moreover, the “dissolution from the electrode” value in data set [3] (during potential sweeping in liquid electrolyte) is “no dissolution”. Moreover, in data set [3] (setting [4]), the “current peak indicating the oxidation reaction” value is given as “around 3.5 V” and the “current peak indicating the second-step reduction reaction” value is “around 2.6 V”. The “current peak indicating the first-step reduction reaction” value in data set [3] (relative to lithium, sweep 2.0 to 4.0 V, 0.1 mV/sec, 1.0 mol/L lithium fluoroborate in propylene carbonate/ethylene carbonate 1:1) was “around 3.1 V”.
